This passage reports Kd and IC50 results from patent US20240025906A1 (NEURON23, INC., priority 2022, published 2024).

One assay addresses T1, TYK2 JH2 (Homo sapiens, UniProt P29597).
T1 construct: purchased DiscoverX (KINOMEscan KdELECT service); host or cells: E. coli BL21-derived (T7 phage display) or HEK-293
Kind of assay: TYK2 JH2 binding assay (KINOMEscan KdELECT competitive binding). To be noted: TYK2 JH2 domain, DiscoverX KINOMEscan KdELECT (Assay A); read-out: Biochemical TYK2_DiscoverX_JH2_BND_Kd. Put shortly: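 Kd values come from qPCR measurement of kinase retained on an immobilized-ligand resin after 1 h room-temperature competition with compound in an 11-point, 3-fold series.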

The test system of assay [1] is JAK1/TYK2 pSTAT5 (Tyr694/699) in THP-1 cell line. Kind of assay: IFNa-stimulated JAK1/TYK2 pSTAT5 (Tyr694/699) inhibition cellular assay, AlphaLISA. Format: cell-based. To be noted: Homo sapiens; THP-1 cells, IFNa-stimulated, AlphaLISA (Assay B); read-out: Cellular_THP1_IFNa-pSTATS_TYK2. In outline: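 pSTAT5 (Tyr694/699) in lysates quantified by AlphaLISA (615 nm) after 30 min IFNa stimulation (100 ng/mL stock) of THP-1 cells. The cells, 2e4 per well in HBSS, had first been exposed 1 h at 37° C. to eight 6-fold compound dilutions, 10000 down to 0.04 nM final. IC50 fitted by 4PL regression, bottom 0, Hill slope −1.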
Background: Alpha assays give light when donor and acceptor beads are brought close together.

T1 sequence (P29597 589-875 limits assumed): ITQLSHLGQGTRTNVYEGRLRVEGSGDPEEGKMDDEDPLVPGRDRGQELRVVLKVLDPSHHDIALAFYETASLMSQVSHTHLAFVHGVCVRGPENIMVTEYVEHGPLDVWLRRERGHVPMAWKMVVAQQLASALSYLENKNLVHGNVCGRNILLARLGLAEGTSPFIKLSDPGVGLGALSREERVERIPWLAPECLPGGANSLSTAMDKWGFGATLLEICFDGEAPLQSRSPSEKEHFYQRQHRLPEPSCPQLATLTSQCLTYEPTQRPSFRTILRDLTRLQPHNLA

With `CNc1ncc(-c2nc3cc(N4CC[C@H]4C(N)=O)ccc3o2)c2cc(NC(=O)C3CC3)ncc12` [Example 321, (S)-1-(2-(6-(cyclopropanecarboxamido)-1-(methylamino)-2,7-naphthyridin-4-yl)benzo[d]oxazol-5-yl)azetidine-2-carboxamide], the Kd at TYK2 JH2 was not above 100 nM. Also, the IC50 in assay [1] is not above 500 nM.
The like results for `CNc1ncc(-c2nc3cc(N4CC5(CN(C(C)=O)C5)C4)ccc3o2)c2cc(NC(=O)C3CC3)ncc12` [Example 322, N-(5-(5-(6-acetyl-2,6-diazaspiro[3.3]heptan-2-yl)benzo[d]oxazol-2-yl)-8-(methylamino)-2,7-naphthyridin-3-yl)cyclopropanecarboxamide] were, in that order, not above 100 nM and not above 500 nM.
The like results for `CNc1ncc(-c2nc3cc(N4CC(OCCC#N)C4)ccc3o2)c2cc(NC(=O)C3CC3)ncc12` [Example 323, N-(5-(5-(3-(2-cyanoethoxy)azetidin-1-yl)benzo[d]oxazol-2-yl)-8-(methylamino)-2,7-naphthyridin-3-yl)cyclopropanecarboxamide] were, in that order, not above 100 nM and not above 500 nM.
The like results for `CNc1ncc(-c2nc3cc(N4CC(OCCOC)C4)ccc3o2)c2cc(NC(=O)C3CC3)ncc12` [Example 324, N-(5-(5-(3-(2-methoxyethoxy)azetidin-1-yl)benzo[d]oxazol-2-yl)-8-(methylamino)-2,7-naphthyridin-3-yl)cyclopropanecarboxamide] were, in that order, not above 100 nM and not above 500 nM.
Turning to `CNc1ncc(-c2nc3cc(N4CC5CC(CN(C)C5)C4)ccc3o2)c2cc(NC(=O)C3CC3)ncc12` [Example 325, N-(5-(5-(7-methyl-3,7-diazabicyclo[3.3.1]nonan-3-yl)benzo[d]oxazol-2-yl)-8-(methylamino)-2,7-naphthyridin-3-yl)cyclopropanecarboxamide], the Kd at TYK2 JH2 is not above 100 nM. For the same compound, the IC50 in assay [1] is not above 500 nM.
In the case of `CNc1ncc(-c2nc3cc(N4CC5CC(CN(C(C)=O)C5)C4)ccc3o2)c2cc(NC(=O)C3CC3)ncc12` [Example 326, N-(5-(5-(7-acetyl-3,7-diazabicyclo[3.3.1]nonan-3-yl)benzo[d]oxazol-2-yl)-8-(methylamino)-2,7-naphthyridin-3-yl)cyclopropanecarboxamide], at TYK2 JH2, the Kd was not above 100 nM. In addition, the IC50 in assay [1] was not above 500 nM.
The like results for `CNc1ncc(-c2nc3cc(N4CC5CN(C)CC(C4)O5)ccc3o2)c2cc(NC(=O)C3CC3)ncc12` [Example 327, N-(5-(5-(7-methyl-9-oxa-3,7-diazabicyclo[3.3.1]nonan-3-yl)benzo[d]oxazol-2-yl)-8-(methylamino)-2,7-naphthyridin-3-yl)cyclopropanecarboxamide] were, in that order, not above 100 nM and not above 500 nM.
As for `CNc1ncc(-c2nc3cc(N4CCCS4(=O)=O)ccc3o2)c2cc(NC(=O)C3CC3)ncc12` [Example 328, N-(5-(5-(1,1-dioxidoisothiazolidin-2-yl)benzo[d]oxazol-2-yl)-8-(methylamino)-2,7-naphthyridin-3-yl)cyclopropanecarboxamide], the Kd at TYK2 JH2 was not above 100 nM. Also, the IC50 in assay [1] was not above 500 nM.
For `CNc1ncc(-c2nc3cc(N4CCOC(C(F)F)C4)ccc3o2)c2cc(NC(=O)C3CC3)ncc12` (centres unmarked) [Example 329, N-(5-(5-(2-(difluoromethyl)morpholino)benzo[d]oxazol-2-yl)-8-(methylamino)-2,7-naphthyridin-3-yl)cyclopropanecarboxamide], the Kd on TYK2 JH2 is not above 100 nM. Moreover, the IC50 in assay [1] was not above 500 nM.
The like results for `CNc1ncc(-c2nc3cc(N4CCOC(C(C)(F)F)C4)ccc3o2)c2cc(NC(=O)C3CC3)ncc12` (centres unmarked) [Example 330, N-(5-(5-(2-(1,1-difluoroethyl)morpholino)benzo[d]oxazol-2-yl)-8-(methylamino)-2,7-naphthyridin-3-yl)cyclopropanecarboxamide] were, in that order, not above 100 nM and not above 500 nM.
With `CNc1ncc(-c2nc3cc(N4CCOC(CO)C4)ccc3o2)c2cc(NC(=O)C3CC3)ncc12` (centres unmarked) [Example 333, N-(5-(5-(2-(hydroxymethyl)morpholino)benzo[d]oxazol-2-yl)-8-(methylamino)-2,7-naphthyridin-3-yl)cyclopropanecarboxamide], the Kd at TYK2 JH2 was not above 100 nM. Moreover, in assay [1], the IC50 was not above 500 nM.
The like results for `C=C1COCCN(c2ccc3oc(-c4cnc(NC)c5cnc(NC(=O)C6CC6)cc45)nc3c2)C1` [Example 334, N-(8-(methylamino)-5-(5-(6-methylene-1,4-oxazepan-4-yl)benzo[d]oxazol-2-yl)-2,7-naphthyridin-3-yl)cyclopropanecarboxamide] were, in that order, not above 100 nM and not above 500 nM.
Take `CNc1ncc(-c2nc3cc(N4CCOCC(C)C4)ccc3o2)c2cc(NC(=O)C3CC3)ncc12` (centres unmarked) [Example 335, N-(5-(5-(6-methyl-1,4-oxazepan-4-yl)benzo[d]oxazol-2-yl)-8-(methylamino)-2,7-naphthyridin-3-yl)cyclopropanecarboxamide]: the Kd at TYK2 JH2 is not above 100 nM. Further, the IC50 in assay [1] was not above 500 nM.
The like results for `CNc1ncc(-c2nc3cc(OCC4COC4)ccc3o2)c2cc(NC(=O)C3CC3)ncc12` [Example 336, N-(8-(methylamino)-5-(5-(oxetan-3-ylmethoxy)benzo[d]oxazol-2-yl)-2,7-naphthyridin-3-yl)cyclopropanecarboxamide] were, in that order, not above 100 nM and not above 500 nM.
The like results for `CNc1ncc(-c2nc3cc(OCC4CCC4)ccc3o2)c2cc(NC(=O)C3CC3)ncc12` [Example 337, N-(5-(5-(cyclobutylmethoxy)benzo[d]oxazol-2-yl)-8-(methylamino)-2,7-naphthyridin-3-yl)cyclopropanecarboxamide] were, in that order, not above 100 nM and more than 500 nM.
The like results for `CNc1ncc(-c2nc3cc(OCC#N)ccc3o2)c2cc(NC(=O)C3CC3)ncc12` [Example 338, N-(5-(5-(cyanomethoxy)benzo[d]oxazol-2-yl)-8-(methylamino)-2,7-naphthyridin-3-yl)cyclopropanecarboxamide] were, in that order, not above 100 nM and not above 500 nM.
As to `CNc1ncc(-c2nc3cc(OCF)ccc3o2)c2cc(NC(=O)C3CC3)ncc12` [Example 339, N-(5-(5-(fluoromethoxy)benzo[d]oxazol-2-yl)-8-(methylamino)-2,7-naphthyridin-3-yl)cyclopropanecarboxamide], at TYK2 JH2, the Kd is not above 100 nM. Further, the IC50 in assay [1] was not above 500 nM.
The like results for `CNc1ncc(-c2nc3cc(Oc4ccncc4)ccc3o2)c2cc(NC(=O)C3CC3)ncc12` [Example 340, N-(8-(methylamino)-5-(5-(pyridin-4-yloxy)benzo[d]oxazol-2-yl)-2,7-naphthyridin-3-yl)cyclopropanecarboxamide] were, in that order, not above 100 nM and not above 500 nM.
The like results for `CNc1ncc(-c2nc3cc(Oc4ccn(C)n4)ccc3o2)c2cc(NC(=O)C3CC3)ncc12` [Example 341, N-(5-(5-((1-methyl-1H-pyrazol-3-yl)oxy)benzo[d]oxazol-2-yl)-8-(methylamino)-2,7-naphthyridin-3-yl)cyclopropanecarboxamide] were, in that order, not above 100 nM and not above 500 nM.
For `CNc1ncc(-c2nc3cc(C4=CCOCC4)ccc3o2)c2cc(NC(=O)C3CC3)ncc12` [Example 342, N-(5-(5-(3,6-dihydro-2H-pyran-4-yl)benzo[d]oxazol-2-yl)-8-(methylamino)-2,7-naphthyridin-3-yl)cyclopropanecarboxamide], the Kd on TYK2 JH2 was not above 100 nM. In addition, the IC50 in assay [1] was not above 500 nM.
Consider `CNc1ncc(-c2nc3cc(C4CCCO4)ccc3o2)c2cc(NC(=O)C3CC3)ncc12` (centres unmarked) [Example 343, N-(8-(methylamino)-5-(5-(tetrahydrofuran-2-yl)benzo[d]oxazol-2-yl)-2,7-naphthyridin-3-yl)cyclopropanecarboxamide], for which the Kd on TYK2 JH2 is not above 100 nM. Also, the IC50 in assay [1] is not above 500 nM.
On to `CNc1ncc(-c2nc3cc(CCC#N)ccc3o2)c2cc(NC(=O)C3CC3)ncc12` [Example 344, N-(5-(5-(2-cyanoethyl)benzo[d]oxazol-2-yl)-8-(methylamino)-2,7-naphthyridin-3-yl)cyclopropanecarboxamide], for which the Kd at TYK2 JH2 was not above 100 nM. The IC50 in assay [1] was not above 500 nM.
The like results for `CNc1ncc(-c2nc3cc(N4CCOCC4)ccc3o2)c2cc(NC(=O)C3CC3)ncc12` [Example 345, N-(8-(methylamino)-5-(5-morpholinobenzo[d]oxazol-2-yl)-2,7-naphthyridin-3-yl)cyclopropanecarboxamide] were, in that order, not above 100 nM and not above 500 nM.
With `CNc1ncc(-c2nc3cc(OC4CCC4C(C)(C)OC)ccc3o2)c2cc(NC(=O)C3CC3)ncc12` (centres unmarked) [Example 346, N-(5-(5-(2-(2-methoxypropan-2-yl)cyclobutoxy)benzo[d]oxazol-2-yl)-8-(methylamino)-2,7-naphthyridin-3-yl)cyclopropanecarboxamide], the Kd on TYK2 JH2 is not above 100 nM. In addition, the IC50 in assay [1] is not above 500 nM.
Take `CNc1ncc(-c2nc3cc(O[C@H]4C[C@@H](COC)C4)ccc3o2)c2cc(NC(=O)C3CC3)ncc12` [Example 347, N-(5-(5-((1s,3s)-3-(methoxymethyl)cyclobutoxy)benzo[d]oxazol-2-yl)-8-(methylamino)-2,7-naphthyridin-3-yl)cyclopropanecarboxamide]: on TYK2 JH2, the Kd is not above 100 nM. Also, in assay [1], the IC50 was not above 500 nM.
